Results taken from paper PMC5004841, “Development of a rapid phenotypic test for HCV protease inhibitors with potential use in clinical decisions” (Genetics and Molecular Biology, 2016).

Tests used:
[1] = system: HCV NS3-4A protease V158I; conditions: mutant V158I vs NS3 WT
From the text: (§1) The HCV genotype 1b NS3-4A protease domain from the plasmid pFKI389 Luc-ubi-neo/NS3-3'/ET (kindly provided by Dr. Ralf Bartenschlager) was amplified with the antisense primer 5'-[…]-3'containing a BamHI enzyme restriction site and the sense primer 5'-[…]-3' containing a HindIII enzyme restriction site. This fragment was cloned into a pET21dhis-TEV bacterial expression vector (a pET21d plasmid, which was modified to codify a 6x histidine tag followed by a cleavage site recognized by the Tobacco Etch virus nTev protease at the protein N-terminus). The single chain NS3-4A protease contains the protease domain (182 amino acids) and a 20-aa portion of the cofactor NS4A ([Abrahim-Vieira et al., 2014]).
(§2) Protein expressions were carried out as described previously with some modifications to simplify techniques and to perform the protocol in a smaller inoculum volume ([Abrahim-Vieira et al., 2014]). Transformed BL21 (λDE3) cells were grown at 37°C in 500 mL of LB medium containing […] ampicilin until an OD600 of 0.6-0.8 was reached. Then, cultures were induced with 0.5 mM isopropyl-1-thio-β-D-galactopyranoside (IPTG) and incubated with shaking at 25 °C for 4 h. Cells expressing NS3-4A constructs were harvested by centrifugation and stored at −80 °C. All resuspension steps were performed at 4 °C. Frozen pellets were resuspended in 12.5 mL of buffer A (Tris-HCl 50 mM pH 7.5; NaCl 300 mM; 2 mM β-mercaptoethanol; 10% glycerol; 0.5% Triton X-100). After resuspension, lysates were treated with lysozyme (5 mg/mL) for 1 h with stirring, subjected to 20 cycles of 15 s of sonication and 30 s of resting. Lysates were cleared by centrifugation at 12.000 g for 30 min and the supernatant filtered with 0.22 μM filter units (Nalgene). After filtration, supernatants were applied in 2 mL of Ni-NTA Agarose (Life Technologies) previously washed with distilled water and equilibrated with buffer A. Agarose resin was washed three times with buffer A and recombinant proteins were eluted with buffer A with 125, 250 and 500 mM imidazol (buffer B). […] Fractions were pooled and dialyzed overnight against buffer A with SnakeSkin Dialysis Tubing 10K MWCO (Thermo Scientific). Purified NS3-4A constructs were quantified with Micro BCA Protein Assay Kit (Thermo Scientific).
(§3) All enzyme inhibition assays were performed in nonbinding black surface 96-well plates (Corning).

[2] = system: HCV NS3-4A protease V36M; conditions: mutant V36M vs NS3 WT
From the text: as §1, §2, §3

[3] = system: HCV NS3-4A protease V170I; conditions: mutant V170I vs NS3 WT
From the text: as §1, §2, §3

[4] = system: HCV NS3-4A protease T54S + V170I; conditions: mutant T54S + V170I vs NS3 WT
From the text: as §1, §2, §3

[5] = system: HCV NS3-4A protease T54A; conditions: mutant T54A vs NS3 WT
From the text: as §1, §2, §3

[6] = molecular target: T1, HCV genotype 1b NS3-4A protease WT (Hepatitis C virus genotype 1b, UniProt Q9WMX2); test: FRET enzyme inhibition assay, NS3 WT (SensoLyte 520 HCV protease assay Kit); assay type: biochemical, hepatitis C virus (HCV) genotype 1b
T1 construct: covalently joined to the NS3 protease domain (aa 1-182) via an amino acid linker GSGS; 6x histidine tag (N); TEV protease cleavage site (N); NS4A central peptide (NS4A aa 21-32), fused N-terminally of NS3; made in house; host or cells: E. coli BL21 (λDE3)
T1 sequence (Q9WMX2 1027-1208 limits assumed): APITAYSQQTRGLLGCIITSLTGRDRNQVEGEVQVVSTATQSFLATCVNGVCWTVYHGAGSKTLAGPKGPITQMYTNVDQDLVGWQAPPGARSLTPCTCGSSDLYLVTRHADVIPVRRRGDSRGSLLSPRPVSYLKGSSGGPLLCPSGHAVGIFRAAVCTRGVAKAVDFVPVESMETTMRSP
From the text: as §1
Protein expressions were carried out as described previously with some modifications to simplify techniques and to perform the protocol in a smaller inoculum volume ([Abrahim-Vieira et al., 2014]). Transformed BL21 (λDE3) cells were grown at 37°C in 500 mL of LB medium containing […] ampicilin until an OD600 of 0.6-0.8 was reached. Then, cultures were induced with 0.5 mM isopropyl-1-thio-β-D-galactopyranoside (IPTG) and incubated with shaking at 25 °C for 4 h. Cells expressing NS3-4A constructs were harvested by centrifugation and stored at −80 °C. […] Purified NS3-4A constructs were quantified with Micro BCA Protein Assay Kit (Thermo Scientific). […]

Structure (SMILES)	fold change (mutant IC50 median/WT IC50 median) [1] [fold]	fold change (mutant IC50 median/WT IC50 median) [2] [fold]	fold change (mutant IC50 median/WT IC50 median) [3] [fold]	fold change (mutant IC50 median/WT IC50 median) [4] [fold]	fold change (mutant IC50 median/WT IC50 median) [5] [fold]	IC50 [6] [nM]
COc1ccc2c(O[C@@H]3C[C@H]4C(=O)N[C@]5(C(=O)NS(=O)(=O)C6CC6)C[C@H]5/C=C\CCCCN(C)C(=O)[C@@H]4C3)cc(-c3nc(C(C)C)cs3)nc2c1C [Simeprevir]	0.1	0.4	3.2	3.8	6.3	17
CCC[C@H](NC(=O)[C@@H]1[C@H]2CCC[C@H]2CN1C(=O)[C@@H](NC(=O)[C@@H](NC(=O)c1cnccn1)C1CCCCC1)C(C)(C)C)C(=O)C(=O)NC1CC1 [Telaprevir]						130
